According to article PMC6696115, “Characterization of Antimicrobial, Antioxidant, and Leishmanicidal Activities of Schiff Base Derivatives of 4-Aminoantipyrine” (Molecules, 2019):
Values after ≈ are worked out from the molar mass of the structure shown. Like-named read-outs stand apart in the source and are kept apart here.

How the values were obtained:
[1] = test system: promastigotes from L. mexicana (M379); assay: leishmanicidal activity, MTT colorimetric assay; format: cell-based; settings: Leishmania mexicana, 48 h exposure, 1% DMSO
Protocol: Leishmanicidal activities of all Schiff bases were evaluated by measuring promastigote mitochondrial activity using MTT colorimetric assay as described previously. […] The medium was renewed every four days. Parasite density was determined in a Neubauer chamber.
Into each well of a 96-well cell culture dish was dispensed 1 × 10^6 parasites. A stock solution of each of the Schiff Base was prepared in DMSO, and serial dilutions were added to the parasite suspension, keeping the solvent concentration at 1%. The final volume was 100 µL for each well and triplicate conditions were carried out. Pentamidine treatment (100 µg/mL) and untreated parasites were used as positive control and negative control, respectively. After exposure to the compounds for 48 h in culture medium, 10 µL of a solution of 5 mg/mL MTT dissolved in PBS was added to each well. […] Later, the plate was centrifuged at 4400 rpm for 10 min and the culture medium was then aspirated. Next, 100 µL of DMSO were added into each well to solubilize the formazan and the plate was shaken for 5 min. The colored formazan salt was measured by recording changes in absorbance at 570 nm using a microplate reader, a BioTek Synergy HT spectrophotometer. A reference wavelength of 630 nm was used to subtract background. Optical densities were analyzed as the quantity of formazan is directly proportional to the number of viable parasites. Data were analyzed with the statistical software GraphPad Prism.

[2] = carcinogenicity group; ref IARC; cited from earlier work
P. aeruginosa ATCC 27853 = assay: antimicrobial serial microdilution, P. aeruginosa; format: cell-based; settings: Pseudomonas aeruginosa, ATCC27853, 37 °C, 24 h
Protocol: (§1) The in vitro antifungal and antimicrobial activities were determined by testing the Schiff bases against the fungi Saccharomyces cerevisiae, Candida albicans, and Aspergillus niger and the bacteria Staphylococcus aureus, Enterococcus faecalis (Gram-positive), Pseudomonas aeruginosa, and Escherichia coli (Gram-negative).
(§2) The bacterial inoculum was prepared by emulsifying overnight colonies from an agar medium in broth (Mueller–Hinton broth). The suspensions were adjusted to a final organism density of 5 × 10^5 colony former units (cfu)/mL. […] The emulsifying of A. niger cultures was done by pouring 5 mL of saline and 0.1% of polysorbate 80 over the Petri dishes. Then, 100 µL of this suspension were diluted in 5 mL of saline and adjusted to an optical density of 0.1 at 530 nm. For S. cerevisiae, fresh exponential YPAD (yeast extract 1%, peptone 2%, adenine 0.004%, […]) cultures were adjusted to an optical density of 0.5 at 600 nm, and then diluted to the equivalent of 1 × 10^4 cells/mL (10^−3 dilution). Stock solutions of Schiff bases were prepared by dissolving them in DMSO at 10 mg/mL. […] The range of concentrations used was empirically selected for each organisms and the Schiff base. Drug sensitivities were assayed by serial dilutions in 96-well plates as previously described. A row with media and cells but without drug was the positive control. The blank was done by preparing a row with media and drugs, but without cells. Plates were fitted with a tight lid before incubation to prevent desiccation. […] The minimum bactericidal concentration (MBC) and fungicidal concentration (MFC) were determined by spreading 100 µL of culture from each well onto a plate (Mueller–Hinton agar for bacteria, Sabouraud dextrose agar for fungi except S. cerevisiae, and YPAD for S. cerevisiae).

[3] = test system: Enterococcus faecalis ATCC 29212; assay: antimicrobial serial microdilution, E. faecalis; format: cell-based; settings: serial microdilution, 37 °C, 24 h
Protocol: as §1, §2

[4] = test system: Escherichia coli ATCC 25922; assay: antimicrobial serial microdilution, E. coli; format: cell-based; settings: serial microdilution, 37 °C, 24 h
Protocol: as §1, §2

[5] = test system: Staphylococcus aureus ATCC 29213; assay: antimicrobial serial microdilution, S. aureus; format: cell-based; settings: serial microdilution, 37 °C, 24 h
Protocol: as §1, §2

[6] = DPPH radical scavenging assay; format: biochemical; settings: 30 min, room temperature, dark, absorbance 515 nm
Protocol: This was used immediately. The experimental procedure was adapted from the literature. Briefly, in a 96-well plate, 100 µL of solution of DPPH (2, 2-diphenyl-1-picrylhydrazyl) radical (0.2 mM in methanol) was added to 100 µL of methanolic solutions of 3a–j, 4, or 5, prepared as serial two-fold dilutions from the stock solution. Standards were also prepared in the same concentrations.
The percentage of DPPH scavenging was then calculated by using the following formula: % DPPH scavenging=100∗Asample+DPPH−Asample blank/ADPPH−Asolvent

[7] = test system: S. cerevisiae (backgrounds W303 and BY4741); assay: antimicrobial serial microdilution, S. cerevisiae; format: cell-based, Saccharomyces cerevisiae; settings: 48 h; for MIC / IC50: Saccharomyces cerevisiae; for MIC: read-out: MIC S. cerevisiae; for NIC S. cerevisiae: noninhibitory concentration
Protocol: as §1, §2

[8] = test system: Aspergillus niger ATCC 6275; assay: antimicrobial serial microdilution, A. niger; format: cell-based; settings: serial microdilution, 35 °C, 48 h; for MIC: 96-well plates, max 2% DMSO
Protocol: as §1, §2

[9] = test system: Candida albicans ATCC 10231; assay: antimicrobial serial microdilution, C. albicans; format: cell-based; settings: serial microdilution, 35 °C, 48 h
Protocol: as §1, §2

RAW 264.7 cells = assay: cell viability, MTT dye assay; format: cell-based, murine; settings: 48 h
Protocol: The specificity and selectivity for the pathogen target is a key point for any potential drug.
The medium was renewed once a week. The viability was determined using MTT (thiazolyl blue tetrazolium bromide) dye assay as described previously for leishmanicidal activity assessment, with some variations. Here, 5 × 10^4 cells/well in a final volume of 100 µL were deposited into a 96-well plate in triplicate. Saponin (2 and 4 mg/mL) and untreated cells were used as the positive control and negative control, respectively. Schiff bases were dissolved in DMSO to obtain different serial concentrations (0.01–2000 µM). […] Cells were pelleted by centrifugation at 4400 rpm for 10 minutes and the media was removed. Next, 100 µL/well of DMSO were added and the absorbance at 570 nm was recorded. A reference wavelength of 630 nm was used for background subtraction.

[10] = Enterococcus faecalis, ATCC29212
[11] = Staphylococcus aureus, ATCC29213

C[C@@H]1[C@H](O)[C@@H](C)/C=C/C=C/C=C/C=C/C=C/C=C/C=C/[C@H](O[C@@H]2O[C@H](C)[C@@H](O)[C@H](N)[C@@H]2O)C[C@@H]2O[C@](O)(C[C@@H](O)C[C@@H](O)[C@H](O)CC[C@@H](O)C[C@@H](O)CC(=O)O[C@H]1C)C[C@H](O)[C@H]2C(=O)O [AP, amphotericin, reference compound]
IC50 [1]: 0.18 ± 0.07 µM

Cc1c(N)nc([C@H](CC(N)=O)NC[C@H](N)C(N)=O)nc1C(=O)N[C@H](C(=O)N[C@H](C)[C@@H](O)[C@H](C)C(=O)N[C@H](C(=O)NCCc1nc(-c2nc(C(=O)NCCC[S+](C)C)cs2)cs1)[C@@H](C)O)[C@@H](OC1OC(CO)C(O)C(O)C1OC1OC(CO)C(O)C(OC(N)=O)C1O)c1cnc[nH]1 (stereo partly shown) [Bleomycin]
IARC: group of classification of IARC [2]: 2B

O=C(O)c1cn(C2CC2)c2cc(N3CCNCC3)c(F)cc2c1=O [CP, ciprofloxacin, reference compound]
IC50 (P. aeruginosa ATCC 27853): 0.94 µg/mL (≈ 2.84 µM)
MIC (P. aeruginosa ATCC 27853): 0.47 ± 0.1 µg/mL (≈ 1.42 µM)
IC50 [3, 10]: 0.49 µg/mL (≈ 1.48 µM)
MIC [3, 10]: 1.15 ± 0.42 µg/mL (≈ 3.47 µM)
NIC E. faecalis ([3]; noninhibitory concentration): 0.30 ± 0.07 µg/mL
IC50 ([4]; Escherichia coli, ATCC25922): 0.07 µg/mL (≈ 0.211 µM)
MIC ([4]; Escherichia coli, ATCC25922): 0.15 ± 0.009 µg/mL (≈ 0.453 µM)
NIC E. coli ([4]; noninhibitory concentration): 0.06 ± 0.003 µg/mL
IC50 [5, 11]: 0.1 µg/mL (≈ 0.302 µM)
MIC [5, 11]: 0.44 ± 0.09 µg/mL (≈ 1.33 µM)
NIC S. aureus ([5]; noninhibitory concentration): 0.06 ± 0.02 µg/mL

N.N.[Cl][Pt][Cl] [Cisplatin]
IARC: group of classification of IARC [2]: 2A

COc1ccc(C=Nc2c(C)n(C)n(-c3ccccc3)c2=O)cc1 [Compound 3c, 4-(4-Methoxybenzylideneamino)-1,5-dimethyl-2-phenyl-1H-pyrazol-3(2H)-one]
MIC (P. aeruginosa ATCC 27853): > 200 µg/mL
IC50 [6]: > 200 µM
MIC ([7]; serial microdilution, 35 °C): > 200 µg/mL
MIC [3, 10]: > 200 µg/mL
MIC ([8]; Aspergillus niger, ATCC6275): > 200 µg/mL
MIC ([4]; Escherichia coli, ATCC25922): > 200 µg/mL
MIC ([9]; Candida albicans, ATCC10231): > 200 µg/mL
IC50 [1]: > 200 µM
MIC [5, 11]: > 200 µg/mL
% Live Cells (RAW 264.7 cells; RAW 264.7, exposure to 400 µM): 26.1 ± 1.9%

Cc1c(N=Cc2cccc([N+](=O)[O-])c2)c(=O)n(-c2ccccc2)n1C [Compound 3g, 4-(3-Nitrobenzylideneamino)-1,5-dimethyl-2-phenyl-1H-pyrazol-3(2H)-one]
MIC (P. aeruginosa ATCC 27853): > 200 µg/mL
IC50 [6]: > 200 µM
IC50 ([7]; serial microdilution, 35 °C, read-out: IC50 S. cerevisiae (converted)): 105 µg/mL (≈ 312 µM)
MIC ([7]; serial microdilution, 35 °C): 179 ± 59.5 µg/mL (≈ 533 µM)
NIC S. cerevisiae ([7]; serial microdilution, 35 °C): 63.7 ± 8.7 µg/mL
MIC [3, 10]: > 200 µg/mL
MIC ([8]; Aspergillus niger, ATCC6275): > 200 µg/mL
MIC ([4]; Escherichia coli, ATCC25922): > 200 µg/mL
MIC ([9]; Candida albicans, ATCC10231): > 200 µg/mL
IC50 [1]: > 200 µM
MIC [5, 11]: > 200 µg/mL
% Live Cells (RAW 264.7 cells; RAW 264.7, exposure to 300 µM (limited solubility)): 22.1 ± 0.6%

Cc1c(N=Cc2ccc(O)c(O)c2)c(=O)n(-c2ccccc2)n1C [Compound 3i, 4-(3,4-Dihydroxybenzylideneamino)-1,5-dimethyl-2-phenyl-1H-pyrazol-3(2H)-one]
MIC (P. aeruginosa ATCC 27853): > 200 µg/mL
IC50 [6]: 18.9 ± 2.4 µM
MIC ([7]; serial microdilution, 35 °C): > 200 µg/mL
MIC [3, 10]: > 200 µg/mL
MIC ([8]; Aspergillus niger, ATCC6275): > 200 µg/mL
MIC ([4]; Escherichia coli, ATCC25922): > 200 µg/mL
MIC ([9]; Candida albicans, ATCC10231): > 200 µg/mL
IC50 [1]: > 200 µM
MIC [5, 11]: > 200 µg/mL
% Live Cells (RAW 264.7 cells; RAW 264.7, exposure to 400 µM): 34.4 ± 2.4%

Cc1c(/N=C/c2ccco2)c(=O)n(-c2ccccc2)n1C [Compound 4, 4-(2-furfurilideneamino)-1,5-dimethyl-2-phenyl-1H-pyrazol-3(2H)-one]
MIC (P. aeruginosa ATCC 27853): > 200 µg/mL
IC50 [6]: > 200 µM
MIC ([7]; serial microdilution, 35 °C): > 200 µg/mL
MIC [3, 10]: > 200 µg/mL
MIC ([8]; Aspergillus niger, ATCC6275): > 200 µg/mL
MIC ([4]; Escherichia coli, ATCC25922): > 200 µg/mL
MIC ([9]; Candida albicans, ATCC10231): > 200 µg/mL
IC50 [1]: > 200 µM
MIC [5, 11]: > 200 µg/mL
% Live Cells (RAW 264.7 cells; RAW 264.7, exposure to 400 µM): 23.8 ± 3.4%

O=P1(N(CCCl)CCCl)NCCCO1 (stereo not shown) [Cyclophosphamide]
IARC: group of classification of IARC [2]: 1

COc1cc([C@@H]2c3cc4c(cc3[C@@H](O[C@@H]3O[C@@H]5CO[C@@H](C)O[C@H]5[C@H](O)[C@H]3O)[C@H]3COC(=O)[C@H]23)OCO4)cc(OC)c1O [Etoposide]
IARC: group of classification of IARC [2]: 1

O=c1[nH]cc(F)c(=O)[nH]1 [Fluorouracil]
IARC: group of classification of IARC [2]: 3

CN[C@@H]1[C@@H](O)[C@@H](O[C@@H]2[C@@H](O)[C@H](O[C@H]3O[C@H]([C@@H](C)O)[C@@H](O)[C@H](O)[C@H]3N)[C@@H](N)C[C@H]2N)OC[C@]1(C)O [GN, geneticin, reference compound]
IC50 ([7]; read-out: IC50 S. cerevisiae): 59.9 µg/mL (≈ 121 µM)
MIC [7]: 93.7 ± 0.9 µg/mL (≈ 189 µM)
NIC S. cerevisiae ([7]; serial microdilution, 35 °C): 44.5 ± 1.7 µg/mL

CN(Cc1cnc2nc(N)nc(N)c2n1)c1ccc(C(=O)N[C@@H](CCC(=O)O)C(=O)O)cc1 [Methotrexate]
IARC: group of classification of IARC [2]: 3

N=C(N)c1ccc(OCCCCCOc2ccc(C(=N)N)cc2)cc1 [PT, pentamidine, reference compound]
IC50 [1]: 4.5 ± 0.46 µM

C[C@@H](c1ncncc1F)[C@](O)(Cn1cncn1)c1ccc(F)cc1F [VR, voriconazole, reference compound]
IC50 ([8]; Aspergillus niger, ATCC6275): 0.2 µg/mL (≈ 0.573 µM)
MIC ([8]; Aspergillus niger, ATCC6275): 1.2 ± 0.05 µg/mL (≈ 3.44 µM)
NIC A. niger ([8]; noninhibitory concentration): 0.05 ± 0.01 µg/mL
IC50 ([9]; Candida albicans, ATCC10231): 0.9 µg/mL (≈ 2.58 µM)
MIC ([9]; Candida albicans, ATCC10231): 29.7 ± 3.52 µg/mL (≈ 85 µM)
NIC C. albicans ([9]; noninhibitory concentration): 0.00 ± 0.00 µg/mL

O=C1O[C@H]([C@@H](O)CO)C(O)=C1O [ascorbic acid, reference compound]
IC50 [6]: 14.5 ± 2.2 µM

O=C(O)/C=C/c1ccc(O)c(O)c1 [caffeic acid, reference compound]
IC50 [6]: 16.2 ± 2.4 µM

O=c1c(O)c(-c2ccc(O)c(O)c2)oc2cc(O)cc(O)c12 [quercetin, reference compound]
IC50 [6]: 7.3 ± 1 µM
